According to PMC3006138, “Fexinidazole – A New Oral Nitroimidazole Drug Candidate Entering Clinical Development for the Treatment of Sleeping Sickness” (PLoS Neglected Tropical Diseases, 2010):
“Also recorded” adds a separate entry of the source. Values belong to the compound of their own block, whether it stands above or below them.

Experiments:
Salmonella typhimurium = test: Ames test; format: cell-based; conditions: for bacterial mutagenicity: standard strains, with and without S9
Method: To evaluate bacterial mutagenicity, a full Ames test was carried out on fexinidazole and fexinidazole sulfone using the five strains of Salmonella typhimurium recommended by the relevant ICH regulatory guideline, namely TA1535, TA1537, TA98, TA100, and TA102, as well as the corresponding nitroreductase-deficient strains, [48]. Standard bacterial plate incorporation assays were carried out, essentially as described by Maron and Ames. Tests on fexinidazole were carried out with and without rat liver post-mitochondrial fraction plus co-factors (S9 mix) to provide a mammalian metabolic activation system. The S9 fraction was prepared from Spague-Dawley rats pretreated with the mixed cytochrome P 450 enzyme inducer Aroclor 1254. Tests on fexinidazole sulfone were carried out only in the absence of rat liver S9 (as this is a metabolite). After incubation at 37°C for three days, plates were scored for mutant colonies using a Colony Counter plate reader.

human lymphocytes = test: In vitro micronucleus test; format: cell-based
Method: Duplicate human lymphocyte cultures were prepared from the pooled blood of two donors in two independent experiments. […] The test concentrations for micronucleus analysis were selected by evaluating the effect of fexinidazole on the replication index (RI). In each experiment, micronuclei were analysed at three concentrations. Similar tests were carried out on fexinidazole sulfone. As per the Ames test, this was carried out in the absence of rat liver S9 only.

[1] = Chemical stability in incubation medium alone; format: physicochemical; conditions: fexinidazole 10 µM, Leibovitz medium alone, 120 min
Method: Incubations were performed in duplicate in a 48-well plate under shaking. Sampling was performed using an automatic liquid handling system (Multiprobe II EX, Packard). […] in acetonitrile (internal standard) were added, and samples centrifuged at 2000 rpm for 20 min. The supernatant was analyzed by LC-MS/MS. The chemical stability of fexinidazole was checked by incubating the compound at 37°C in the medium alone at t = 0 and 120 minutes. For the determination of phase I and phase II activity of hepatocytes, 7-ethoxycoumarin (7- […] incubated under the same conditions as fexinidazole. Aliquots of incubates were taken at 0, 10, 20, 30, 60 and 120 minutes and processed as fexinidazole samples. […] Metabolite Profile Study […] mouse, rat, dog, monkey and human hepatocytes (300000 cells/mL for the mouse and 1 million cells/mL for the other species) in a final incubation volume of 2 mL Leibovitz L-15 medium, at 37°C. Aliquots of the incubation samples were taken at t = 0, 30 and 120 minutes; the metabolism was stopped by the addition of an equal volume of cold acetonitrile and the samples centrifuged at 1500 rpm for 20 min. The supernatant was stored at -20°C until analysis. Control incubations were performed with the compound in the medium alone for 120 minutes. […] Nerviano Medical Sciences […] For the determination of phase I and phase II activities of hepatocytes, 7-ethoxycoumarin (7- […] incubated under the same conditions as fexinidazole. Aliquots of incubates were taken at 0, […] 7.5.2. Metabolite Profile Study […] pooled human hepatocytes (1 million cells/mL) in a final incubation volume of 2 mL Leibovitz L-15 medium, at 37°C. Aliquots of the incubation samples were taken at t = 0, 30 and 120 minutes; the metabolism was stopped by the addition of an equal volume of cold acetonitrile and the samples centrifuged at 1100 rpm for 20 min. The supernatant was stored at -20°C until analysis. Control incubations were performed with the compound in the medium alone for 120 minutes. […] Valco Divert Valve Step Total time (min) Position […]

[2] = Preliminary embryo-foetal and early postnatal development study; format: in vivo, rat; conditions: pregnant rats
Method: In the rat study, fexinidazole was administered orally by gavage once a day from day 6 to day 17 of gestation or from day 6 of gestation to day 7 of lactation to 10 mated rat Crl:CD (SD)IGS BR rats[…]/group at doses of 50, 200, or 800 mg/kg/day. A control group received the vehicle alone (5% Tween 80/0.5% methocel).

[3] = test system: MDR1 (human, transfected); test: in vitro; conditions: dog, MDCK-MDR1, pH 7.4
Method: (§1) Caco-2 [36] or MDR1-MDCK (Madin Darby canine kidney cells transfected with the human multidrug resistance MDR1 gene) cell monolayers were grown to confluence on collagen-coated, microporous, polycarbonate membranes in 12-well microtitre plates. The buffer for the donor chamber was Hanks balanced salt solution with 10 mM HEPES and 15 mM glucose at pH 7.4. The buffer in the receiver chamber contained the same with the addition of 1% bovine serum albumin (BSA). The test article was added at 5 µM in the assay buffer. […] After 2 h, duplicate aliquots were taken from the donor and receiver chambers and assayed via LC/MS. The apparent permeability and recovery were calculated using standard methods.
(§2) The objective of this study was to determine the bi-directional MDR1-MDCK permeability and efflux limited absor ption potential of thr ee test compounds. […]
(§3) 4. Th e buff er in th e r ecei ver cha m ber a l so con t a in ed 1% Bovi n e Ser um Al bumin ( BSA) . Th e test compound dosing concentrations were 5 µM in th e a ssay bu f fer . […] After two hours, a l iquot s wer e t a ken fr om th e r ecei ver an d don or cha m ber s. E a ch det erm ina ti on wa s per for m ed in dupl i cat e. Th e Lucifer Yellow flux was also measur ed for each mon olayer after bein g subjected to th e test compoun ds to en sur e n o damage was in flicted to th e cell mon olayer s durin g th e flux per iod. All samples wer e assayed by LC/MS/MS usin g electrospray ionization. Analytical conditions are outlined in Attachment I. The apparent permeability, Papp, and per cen t r ecover y wer e calculated as follows: […]
(§4) dCr /dt is th e slope of th e cumulative con cen tration in th e r eceiver compartment ver sus time in µM s -1. […]

human MDR1 = test: in vitro; conditions: dog, MDCK-MDR1, pH 7.4
Method: as §1, §2, §3, §4

[4] = test system: MDR1-MDCK cell monolayers; test: in vitro; conditions: MDCK-MDR1
Method: as §1, §2, §3, §4

in vitro = conditions: dog
Method: as §1, §2, §3, §4

[5] = parameters: method as in study 0339-2007; conditions: 7-day repeated toxicity study, top dose 2000 mg/kg, ref study 0339-2007; cited from earlier work

Compound: Cn1c([N+](=O)[O-])cnc1COc1ccc(S(C)(=O)=O)cc1 [Fexinidazole sulfone]
bacterial mutagenicity (Salmonella typhimurium): gave similar results to fexinidazole
in vitro micronucleus test result (human lymphocytes): negative

% of total drug related material [1]: 18%
Compound: Cn1c([N+](=O)[O-])cnc1COc1ccc([S+](C)[O-])cc1 (stereo not shown) [Fexinidazole sulfoxide]

Compound: CSc1ccc(OCc2ncc([N+](=O)[O-])n2C)cc1 [Fexinidazole, 1-methyl-2-((p-(methylthio)phenoxy)methyl)-5-nitroimidazole]
mutagenic activity (Salmonella typhimurium; nitroreductase-deficient Salmonella strains): significantly reduced or abolished
bacterial mutagenicity (Salmonella typhimurium): elicited both frameshift and base substitution mutations; also recorded: mutagenic in the Ames test
in vitro micronucleus test result (human lymphocytes): did not induce the formation of micronuclei
Micronucleated binucleate cells (human lymphocytes; 20 μg/mL, 24-h PHA, +S9): 0.50%
Micronucleated binucleate cells (human lymphocytes; 20 μg/mL, 24-h PHA, −S9): 0.50%
Micronucleated binucleate cells (human lymphocytes; 20 μg/mL, 48-h PHA, +S9): 0.60%
Micronucleated binucleate cells (human lymphocytes; 20 μg/mL, 48-h PHA, −S9): 1.1%
Micronucleated binucleate cells (human lymphocytes; 40 μg/mL, 24-h PHA, +S9): 0.55%
Micronucleated binucleate cells (human lymphocytes; 40 μg/mL, 24-h PHA, −S9): 0.40%
Micronucleated binucleate cells (human lymphocytes; 40 μg/mL, 48-h PHA, +S9): 1.20%
Micronucleated binucleate cells (human lymphocytes; 40 μg/mL, 48-h PHA, −S9): 0.60%
Micronucleated binucleate cells (human lymphocytes; 80 μg/mL, 24-h PHA, +S9): 0.75%
Micronucleated binucleate cells (human lymphocytes; 80 μg/mL, 24-h PHA, −S9): 0.70%
Micronucleated binucleate cells (human lymphocytes; 80 μg/mL, 48-h PHA, +S9): 0.40%
Micronucleated binucleate cells (human lymphocytes; 80 μg/mL, 48-h PHA, −S9): 0.90%
% of total drug related material [1]: about 84%
% of total drug related material ([1]; listed as P): 82%
effects on embryo-foetal and early postnatal development [2]: no adverse effects on embryos/foetuses, parturition, and neonates
efflux ratio at 2 h, 5 µM [3]: 0.9
Papp B→A at 2 h, 5 µM (human MDR1): 55.1 ×10⁻⁶ cm/s
Papp B-A / Papp A-B Ratio [4]: no significant efflux
Papp A→B at 2 h, 5 µM (in vitro; MDCK-MDR1, pH 7.4): 60.6 ×10⁻⁶ cm/s
recovery at 2 h, 5 µM (in vitro; MDCK-MDR1, pH 7.4, Percent Recovery A→B): 71%
recovery at 2 h, 5 µM (in vitro; MDCK-MDR1, pH 7.4, Percent Recovery B→A): 77%
tolerability [5]: well tolerated
